Reference: the METLIN SMRT retention time set (Domingo-Almenara et al. 2019)

Assay: gradient 5% acetonitrile 3 min, to 50% in 2 min, to 85% in 15 min, held 3 min, 100 µL/min
Conditions: column: Zorbax Extend-C18 2.1 x 50 mm; eluents: water / acetonitrile, 0.1% formic acid
Summary of the method: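 Using water and acetonitrile that each contained 0.1% formic acid, mixtures of ~100 pure standards were separated at 100 μL/min on a Zorbax Extend-C18 column (2.1 × 50 mm, 1.8 μm). The HPLC fed a quadrupole time-of-flight mass spectrometer working in positive and negative ionization mode, with dead and dwell volumes of 40 μL and 900 μL. Data were acquired over 3 months. Retention time was read from computationally picked adduct peaks after manual inspection of each.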

In order of rising RP-LC retention time:
1. Cn1cnc(S(=O)(=O)N2CC(N(Cc3ccccc3)C3CCOCC3)C2)c1  600 s
2. CCOc1ccc(C(=O)NCCc2nc3cccnc3n2CC)cc1  642 s
3. CCCc1cc(N2CCN(C(=O)c3ccc4c(c3)OCO4)CC2)nc2nnc(CC)n12  650 s
4. O=C(C1CCN(S(=O)(=O)N2CCOCC2)CC1)N1CCC(c2nc(C3CCOCC3)no2)C1 (centres undefined)  656 s
5. COc1cccc(NC(=O)Cn2cnc3nc(N4CCC(C(=O)NC5CC5)CC4)sc3c2=O)c1  658 s
6. Cc1nn(C2CCS(=O)(=O)C2)c2nc(-c3ccco3)cc(C(=O)NCC3CCCO3)c12 (centres undefined)  683 s
7. O=C(Cc1nnc2cc(-c3nc(C4CC4)no3)ccn12)N1CCSCC1  698 s
8. CC(=O)N1CCc2cc(C)c(S(=O)(=O)N3CCOCC3)cc21  708 s
9. Cc1cc(Br)ccc1NC(=O)Cn1cnc2c(nc3n2CCCCC3)c1=O  711 s
10. CCOC(=O)N1CCC(c2nnc(-c3ccco3)s2)CC1  728 s
11. Cc1cnc(C(=O)NC2C[C@H]3CC[C@@H](C2)N3C(=O)C2CCCCCC2)cn1 (some centres undefined)  733 s
12. O=C(CN1C(=O)CCS(=O)(=O)c2ccccc21)Nc1ccccc1C(F)(F)F  746 s
13. O=C(Nc1c(-c2ccc(F)cc2)nc2ccccn12)c1cccc(Cl)c1  750 s
14. CC(NC(=O)C1CCN(C(=O)c2ncn3c2COC(c2ccccc2)C3)CC1)c1ccccc1 (centres undefined)  754 s
15. CCOc1ccc(CNC(=O)Cn2cnc3onc(C)c3c2=O)cc1  755 s
16. Cc1ccc(C(=O)CC2(O)C(=O)Nc3ccccc32)c(C)c1 (centres undefined)  759 s
17. CCC(=O)Nc1cc2c(cc1S(=O)(=O)c1ccc(C)cc1)n(C)c(=O)n2C  767 s
18. O=C(c1ccc(Cl)s1)N1CCCC(CCc2nnc(C3CCOCC3)o2)C1 (centres undefined)  790 s
19. O=C1CCCc2cc(S(=O)(=O)N3CCCC(C(=O)N4CCc5ccccc5C4)C3)ccc2N1 (centres undefined)  792 s
20. CC(C)(Oc1ccc(Cl)cc1)C(=O)Nc1nnc(C2CC(=O)N(c3ccccc3)C2)o1 (centres undefined)  793 s
21. CCNC(=O)c1nnn(-c2cc(C(F)(F)F)ccc2Cl)c1-c1cccnc1  796 s
22. Cc1nn(CC(=O)N(C)Cc2ccco2)c(=O)c2c(C)n(-c3ccccc3)nc12  820 s
23. CCC(C)NC(=O)N1CCCN(C2=NS(=O)(=O)C(c3ccc(Cl)cc3)=C2C)CC1 (centres undefined)  825 s
24. CCc1onc(C)c1C1CCCN1C(=O)Nc1cccc(F)c1 (centres undefined)  832 s
25. CCn1c(N2CCCC(C(=O)NCCCN3CCCc4ccccc43)C2)cc(=O)n(C)c1=O (centres undefined)  847 s
26. COC(=O)c1cc(S(=O)(=O)N2CCCC2C(=O)N2CCc3ccccc32)cn1C (centres undefined)  848 s
27. CCOc1ccccc1NC(=O)Cn1nc(C2CC2)cc1C(=O)N1CCCC1  850 s
28. O=C(Cc1ccc(Cl)cc1)NCC(=O)N1CCCc2ccccc21  862 s
29. Cn1ncc(Br)c1C(=O)N1CCCC1c1ccccc1F (centres undefined)  872 s
30. CSCc1csc(NC(=O)COc2ccc(Cl)cc2)n1  883 s
31. COc1ccc(CCNC(=O)C2CCN(S(C)(=O)=O)c3cc(Cl)ccc3O2)cc1 (centres undefined)  889 s
32. CC(C)n1cnc(S(=O)(=O)N2CCCC(C(=O)Nc3cccc(Br)c3)C2)c1 (centres undefined)  898 s
33. CCOC(=O)c1ccc(NC(=O)Cn2c(=O)cc(-c3nc(C)no3)c3ccccc32)cc1  903 s
34. CCOC(=O)c1c(S(=O)(=O)N2CCC(C(=O)Nc3ccc(C)cc3C)CC2)c(C)n(CC)c1C  928 s
35. COc1ccc(CCc2nc3nccc(-c4cccs4)n3n2)cc1  932 s
36. Cc1ccccc1CNC(=O)Cn1c(C)cc(-c2nnc(-c3ccccc3)o2)c1C  957 s
37. O=C(NC1CCCCCC1)c1ccc2ccnc(N3CCN(c4ccccc4F)CC3)c2c1  973 s
38. Cc1cc(NC(=O)c2cnc(-c3ccccc3)nc2-c2ccncc2)ccc1Br  994 s
39. CCOC(=O)Cc1csc(NC(=O)CSc2nc(C)nc3sc4c(c23)CCC4)n1  998 s
40. COc1ccccc1-c1coc2cc(OC(=O)c3cccc([N+](=O)[O-])c3)ccc2c1=O  1010 s
41. CCN1C(=O)C2(CCN(S(=O)(=O)c3ccc(C)cc3)CC2)c2ccccc21  1050 s
42. Cc1c(Cl)cccc1S(=O)(=O)N1CCc2c(c(-c3nnc(-c4ccccc4F)o3)nn2C)C1  1050 s
43. CCc1ccc(-n2ncc3c(=O)n(Cc4nc(-c5cc(OC)c(OC)c(OC)c5)no4)cnc32)cc1  1080 s
44. COc1ccc(OC)c(NC(=O)c2noc3c2CCCC3)c1  1160 s
